Source: ChEMBL document CHEMBL1201862, “PubChem BioAssay data set” (2004)
Active and inactive are the calls of the source.

Legend:
[1] = molecular target: Eukaryotic translation initiation factor 4H (Homo sapiens, UniProt Q15056); experiment: eIF4H binding inhibition – biochemical, uHTS, fluorescence polarization, translation initiation inhibitor project, primary screen (AID 2012)
[2] = molecular target: Luciferin 4-monooxygenase (Photinus pyralis, UniProt P08659); experiment: inhibition of purified Photinus pyralis luciferase – biochemical, luminescence, dose response (AID 1891)
Luciferin 4-monooxygenase, sequence (P08659 whole entry): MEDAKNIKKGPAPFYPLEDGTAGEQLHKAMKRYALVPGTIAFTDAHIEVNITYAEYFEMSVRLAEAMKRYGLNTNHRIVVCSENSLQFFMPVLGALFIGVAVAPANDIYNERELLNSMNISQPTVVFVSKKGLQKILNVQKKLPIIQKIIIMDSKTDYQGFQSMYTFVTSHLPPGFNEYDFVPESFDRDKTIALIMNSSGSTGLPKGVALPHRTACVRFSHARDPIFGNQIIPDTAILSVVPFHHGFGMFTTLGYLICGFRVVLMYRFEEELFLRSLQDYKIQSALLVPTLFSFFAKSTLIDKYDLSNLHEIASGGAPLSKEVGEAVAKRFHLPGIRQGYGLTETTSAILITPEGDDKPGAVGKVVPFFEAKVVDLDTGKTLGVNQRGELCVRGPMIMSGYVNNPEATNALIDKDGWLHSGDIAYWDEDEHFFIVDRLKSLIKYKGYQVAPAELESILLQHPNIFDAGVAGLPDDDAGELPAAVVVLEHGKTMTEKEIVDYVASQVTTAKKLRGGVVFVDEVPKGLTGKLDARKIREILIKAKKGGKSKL

[3] = Luminescence Cell-Based Dose Confirmation HTS to Identify Inhibitors of Platelet Dense Granule Release. [Related pubchem assays: 1663 (Primary HTS), 1678 (Summary of Project)]; format: functional
[4] = molecular target: Polyadenylate-binding protein 1 (Homo sapiens, UniProt P11940); experiment: blockers of PABP interaction with poly(A) – biochemical, fluorescence polarization, […] (AID 2014)
[5] = HEK-293T cell viability reduction – luminescence, B-cell screen hits, cytotoxicity control for BCR NF-kB inhibitor project, dose response (AID 489021); format: functional, cell-based;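 also: HEK-293T cells carrying an NF-kB luciferase reporter; cells exposed to compound for about 14 hours before viability readout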
SUMO-activating enzyme [6] = molecular target: T1, SUMO-activating enzyme (Homo sapiens, UniProt Q9UBT2); experiment: blockers of UBC9-mediated SUMO conjugation – biochemical, AlphaScreen, SUMOylation inhibitor project, confirmation (AID 2018); format: functional
T1 sequence (Q9UBE0 whole entry): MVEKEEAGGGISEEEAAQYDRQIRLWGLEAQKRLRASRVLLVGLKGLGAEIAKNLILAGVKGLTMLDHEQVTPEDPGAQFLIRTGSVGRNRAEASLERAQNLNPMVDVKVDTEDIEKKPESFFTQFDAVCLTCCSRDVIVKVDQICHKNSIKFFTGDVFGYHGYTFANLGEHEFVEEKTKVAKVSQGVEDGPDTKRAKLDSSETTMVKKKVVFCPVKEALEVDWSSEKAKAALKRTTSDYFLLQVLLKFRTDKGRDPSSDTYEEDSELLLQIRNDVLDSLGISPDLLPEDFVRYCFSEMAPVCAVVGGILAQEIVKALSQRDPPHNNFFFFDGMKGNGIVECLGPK
T1 sequence (Q9UBT2 whole entry): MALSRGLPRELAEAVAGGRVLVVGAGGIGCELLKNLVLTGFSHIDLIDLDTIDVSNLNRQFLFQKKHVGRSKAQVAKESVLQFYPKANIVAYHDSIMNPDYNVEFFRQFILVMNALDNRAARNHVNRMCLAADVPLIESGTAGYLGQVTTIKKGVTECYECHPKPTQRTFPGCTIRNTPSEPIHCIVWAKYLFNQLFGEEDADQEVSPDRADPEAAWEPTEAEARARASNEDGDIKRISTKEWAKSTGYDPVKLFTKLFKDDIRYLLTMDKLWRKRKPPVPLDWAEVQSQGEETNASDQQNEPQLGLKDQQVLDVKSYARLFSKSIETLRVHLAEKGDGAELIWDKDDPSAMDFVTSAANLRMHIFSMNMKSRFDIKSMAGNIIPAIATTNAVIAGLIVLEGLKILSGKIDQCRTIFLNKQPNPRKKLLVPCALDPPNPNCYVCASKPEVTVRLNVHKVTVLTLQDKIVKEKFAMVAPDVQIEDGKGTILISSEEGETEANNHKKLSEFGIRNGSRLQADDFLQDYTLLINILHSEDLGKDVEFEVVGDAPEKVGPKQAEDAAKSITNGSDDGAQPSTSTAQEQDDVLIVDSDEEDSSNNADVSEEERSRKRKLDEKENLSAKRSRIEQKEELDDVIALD

SUMO-activating enzyme [7] = molecular target: T1, SUMO-activating enzyme; experiment: blockers of SAE1/SAE2–UBC9 SUMO transfer – biochemical, HTRF, uHTS, primary screen (AID 2006); format: protein-complex assay
[8] = molecular target: T2, Heat shock factor protein 1 (Mus musculus, UniProt P38532); experiment: enhancement of HSF1-driven luciferase signal – cell-based, NIH3T3, luminescence, dose retest, confirmation (AID 435004); format: functional;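 also: stress induced by proteasome inhibitor MG132 added 30 min after compound; luciferase reporter driven by HSF1 response element in NIH3T3 cells; actives raise luminescence as potentiators of the MG132 stress response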
T2 sequence (P38532 whole entry): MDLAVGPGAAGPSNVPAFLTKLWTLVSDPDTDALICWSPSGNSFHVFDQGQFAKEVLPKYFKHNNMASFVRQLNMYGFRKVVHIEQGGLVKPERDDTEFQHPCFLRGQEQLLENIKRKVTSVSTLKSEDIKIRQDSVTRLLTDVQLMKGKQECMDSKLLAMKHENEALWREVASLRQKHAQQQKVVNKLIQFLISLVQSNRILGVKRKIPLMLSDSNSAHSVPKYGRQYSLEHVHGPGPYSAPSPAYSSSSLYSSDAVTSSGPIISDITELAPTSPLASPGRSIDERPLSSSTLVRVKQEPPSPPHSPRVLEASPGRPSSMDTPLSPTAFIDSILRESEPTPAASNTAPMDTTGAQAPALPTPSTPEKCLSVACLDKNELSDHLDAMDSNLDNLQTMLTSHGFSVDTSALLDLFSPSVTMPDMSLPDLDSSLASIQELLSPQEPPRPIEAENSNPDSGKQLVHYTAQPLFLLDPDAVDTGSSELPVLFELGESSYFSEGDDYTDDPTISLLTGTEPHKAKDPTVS

[9] = molecular target: DNA damage-inducible transcript 3 protein (Mus musculus, UniProt P35639); format: functional, Cricetulus griseus
DNA damage-inducible transcript 3 protein, sequence (P35639 whole entry): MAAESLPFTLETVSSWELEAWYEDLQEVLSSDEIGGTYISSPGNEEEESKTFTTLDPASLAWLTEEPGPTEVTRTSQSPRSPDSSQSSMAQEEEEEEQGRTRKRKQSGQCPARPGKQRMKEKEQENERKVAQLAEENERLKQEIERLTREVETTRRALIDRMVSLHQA

X-box-binding protein 1 = X-box-binding protein 1 (Homo sapiens, UniProt P17861); format: functional, Cricetulus griseus;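 also: confirmatory dose-response counter-screen serving a CHOP assay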
X-box-binding protein 1, sequence (P17861 whole entry): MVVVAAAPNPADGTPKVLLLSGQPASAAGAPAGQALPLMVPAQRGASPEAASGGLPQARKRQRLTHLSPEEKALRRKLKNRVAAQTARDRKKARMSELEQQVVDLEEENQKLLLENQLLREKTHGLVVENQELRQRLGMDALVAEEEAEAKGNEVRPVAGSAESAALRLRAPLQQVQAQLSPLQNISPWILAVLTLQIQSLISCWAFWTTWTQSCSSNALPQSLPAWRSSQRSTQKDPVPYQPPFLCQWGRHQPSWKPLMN

HEK293 [10] = experiment: inhibition of NOD1-driven NF-kB reporter – cell-based, luminescence, uHTS, primary screen (AID 1578); format: functional; conditions: Homo sapiens
[11] = system: Streptococcus sp. 'group A'; experiment: Streptococcus pyogenes SK(-)GAS viability under kanamycin – luminescence, BacTiterGlo, confirmation, counter-screen for streptokinase expression inhibitor project, dose response (AID 1900); format: functional, organism-based
HEK293 [12] = experiment: cells; format: functional, cell-based; conditions: Homo sapiens
HEK293 [13] = experiment: cells; format: functional, cell-based; conditions: Homo sapiens; remark: listed apart in the source
[14] = molecular target: T3, Nucleotide-binding oligomerization domain-containing protein 2 (Homo sapiens, UniProt Q9HC29); experiment: inhibition of NOD2-driven NF-kB reporter – cell-based, luminescence, uHTS, HEK293 (AID 1566); format: functional
T3 sequence (Q9HC29 whole entry, the tested form may be a part): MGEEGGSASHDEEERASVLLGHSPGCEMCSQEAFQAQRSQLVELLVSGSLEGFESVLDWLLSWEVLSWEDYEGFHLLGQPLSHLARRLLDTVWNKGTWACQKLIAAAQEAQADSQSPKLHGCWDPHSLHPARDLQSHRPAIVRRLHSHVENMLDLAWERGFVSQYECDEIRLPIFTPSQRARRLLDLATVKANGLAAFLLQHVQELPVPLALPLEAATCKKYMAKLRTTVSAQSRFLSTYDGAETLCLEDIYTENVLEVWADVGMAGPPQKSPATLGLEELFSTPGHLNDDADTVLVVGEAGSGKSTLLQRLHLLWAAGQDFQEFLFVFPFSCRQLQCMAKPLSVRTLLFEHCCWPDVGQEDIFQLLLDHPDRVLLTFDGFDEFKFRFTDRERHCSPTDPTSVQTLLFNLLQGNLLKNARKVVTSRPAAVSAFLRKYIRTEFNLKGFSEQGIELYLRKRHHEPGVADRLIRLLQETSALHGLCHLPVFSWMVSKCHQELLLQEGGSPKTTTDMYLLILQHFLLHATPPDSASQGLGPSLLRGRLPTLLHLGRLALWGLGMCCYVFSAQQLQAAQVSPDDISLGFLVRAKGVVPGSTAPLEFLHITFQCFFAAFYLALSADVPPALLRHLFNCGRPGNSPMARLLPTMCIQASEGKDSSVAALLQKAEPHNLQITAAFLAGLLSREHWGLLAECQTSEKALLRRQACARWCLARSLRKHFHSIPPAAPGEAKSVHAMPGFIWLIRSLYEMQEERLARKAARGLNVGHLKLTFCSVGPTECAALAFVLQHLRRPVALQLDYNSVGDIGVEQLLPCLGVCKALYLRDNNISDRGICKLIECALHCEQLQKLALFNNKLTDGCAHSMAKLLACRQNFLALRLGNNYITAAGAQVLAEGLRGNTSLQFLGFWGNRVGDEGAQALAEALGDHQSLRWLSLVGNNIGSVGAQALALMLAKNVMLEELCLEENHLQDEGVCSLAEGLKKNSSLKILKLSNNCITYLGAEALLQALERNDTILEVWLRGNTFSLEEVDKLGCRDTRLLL

HEK293 [15] = experiment: NOD2 signaling inhibitors in MDP-stimulated cells, cell-based, uHTS, luminescence (AID 2001); format: functional; conditions: Homo sapiens
HEK293 [16] = experiment: cells; format: functional, cell-based; conditions: Homo sapiens; remark: listed apart in the source
Streptococcus = experiment: GAS UMAA2166 growth inhibition – luminescence, BacTiterGlo, counter-screen for streptokinase expression inhibitor project, dose response (AID 1915); format: functional, organism-based;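 also: potency for reduction of bacterial viability or growth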
Tumor necrosis factor = Tumor necrosis factor (Homo sapiens, UniProt P01375); experiment: analog potency on TNFa NF-kB signaling – cell-based, revised, SAR follow-up (AID 2337); format: functional
Tumor necrosis factor, sequence (P01375 whole entry, the tested form may be a part): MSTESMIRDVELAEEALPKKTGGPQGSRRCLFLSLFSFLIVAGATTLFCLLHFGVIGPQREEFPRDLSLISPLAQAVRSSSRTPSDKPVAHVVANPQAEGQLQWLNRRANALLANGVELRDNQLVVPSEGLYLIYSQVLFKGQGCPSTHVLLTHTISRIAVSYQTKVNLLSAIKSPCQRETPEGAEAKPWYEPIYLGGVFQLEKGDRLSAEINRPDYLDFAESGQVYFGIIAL

[17] = molecular target: T4, Nucleotide-binding oligomerization domain-containing protein 1 (Homo sapiens, UniProt Q9Y239); experiment: blockers of NOD1 pathway activity – revised, SAR follow-up (AID 2333); format: functional
T4 sequence (Q9Y239 whole entry): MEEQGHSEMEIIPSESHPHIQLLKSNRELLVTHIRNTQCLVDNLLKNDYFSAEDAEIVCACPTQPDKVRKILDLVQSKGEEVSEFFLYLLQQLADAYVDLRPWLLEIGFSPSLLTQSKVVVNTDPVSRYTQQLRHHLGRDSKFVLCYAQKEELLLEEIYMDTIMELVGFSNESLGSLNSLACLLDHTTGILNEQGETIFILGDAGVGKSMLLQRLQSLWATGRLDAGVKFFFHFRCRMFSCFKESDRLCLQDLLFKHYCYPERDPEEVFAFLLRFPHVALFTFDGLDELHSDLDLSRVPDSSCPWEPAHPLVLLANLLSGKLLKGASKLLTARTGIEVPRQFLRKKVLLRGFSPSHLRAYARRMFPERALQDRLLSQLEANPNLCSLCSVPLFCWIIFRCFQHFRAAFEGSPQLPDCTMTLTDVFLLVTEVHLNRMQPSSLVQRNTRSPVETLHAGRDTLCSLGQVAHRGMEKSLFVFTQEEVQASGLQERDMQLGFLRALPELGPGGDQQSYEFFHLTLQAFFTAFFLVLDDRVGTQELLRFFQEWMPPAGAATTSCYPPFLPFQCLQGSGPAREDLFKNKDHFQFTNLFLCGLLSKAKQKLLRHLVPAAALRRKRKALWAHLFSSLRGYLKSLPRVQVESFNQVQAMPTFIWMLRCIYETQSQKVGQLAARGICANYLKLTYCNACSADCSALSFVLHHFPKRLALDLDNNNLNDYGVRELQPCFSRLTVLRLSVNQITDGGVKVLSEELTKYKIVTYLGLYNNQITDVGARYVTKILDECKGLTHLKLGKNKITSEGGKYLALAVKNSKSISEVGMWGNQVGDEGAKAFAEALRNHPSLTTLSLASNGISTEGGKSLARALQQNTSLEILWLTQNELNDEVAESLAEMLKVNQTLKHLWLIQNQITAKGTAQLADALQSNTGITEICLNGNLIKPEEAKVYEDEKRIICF

[18] = molecular target: T3, Nucleotide-binding oligomerization domain-containing protein 2; experiment: PubChem AID 2334; format: functional
HEK293 [19] = experiment: cells; conditions: Homo sapiens
[20] = molecular target: Mothers against decapentaplegic homolog 3 (Homo sapiens, UniProt P84022); experiment: blockers of Smad3 complex formation in lysate – cell lysate, secondary confirmation, chemiluminescent ELISA, HEK293 lysate, dose response (AID 1058); format: functional
Mothers against decapentaplegic homolog 3, sequence (P84022 whole entry): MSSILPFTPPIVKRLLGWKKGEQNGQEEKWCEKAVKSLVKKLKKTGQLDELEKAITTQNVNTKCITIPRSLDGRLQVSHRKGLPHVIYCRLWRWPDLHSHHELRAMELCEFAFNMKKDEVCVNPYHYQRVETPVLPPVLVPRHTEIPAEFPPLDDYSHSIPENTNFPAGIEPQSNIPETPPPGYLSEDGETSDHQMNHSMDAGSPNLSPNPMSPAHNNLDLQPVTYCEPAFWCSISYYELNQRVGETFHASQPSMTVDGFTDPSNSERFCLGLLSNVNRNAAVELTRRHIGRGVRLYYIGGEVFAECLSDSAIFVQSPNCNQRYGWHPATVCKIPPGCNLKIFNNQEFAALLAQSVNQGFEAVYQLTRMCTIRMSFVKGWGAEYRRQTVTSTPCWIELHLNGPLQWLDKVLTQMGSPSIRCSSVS

[21] = molecular target: Transitional endoplasmic reticulum ATPase (Homo sapiens, UniProt P55072, C522A); experiment: C522A mutant p97 ATPase inhibitors, dose response, counter-screen for p97 inhibitor project, biochemical, luminescence (AID 1544)
Transitional endoplasmic reticulum ATPase (Homo sapiens, UniProt P55072, C522A), sequence (P55072 2-806 C522A limits assumed): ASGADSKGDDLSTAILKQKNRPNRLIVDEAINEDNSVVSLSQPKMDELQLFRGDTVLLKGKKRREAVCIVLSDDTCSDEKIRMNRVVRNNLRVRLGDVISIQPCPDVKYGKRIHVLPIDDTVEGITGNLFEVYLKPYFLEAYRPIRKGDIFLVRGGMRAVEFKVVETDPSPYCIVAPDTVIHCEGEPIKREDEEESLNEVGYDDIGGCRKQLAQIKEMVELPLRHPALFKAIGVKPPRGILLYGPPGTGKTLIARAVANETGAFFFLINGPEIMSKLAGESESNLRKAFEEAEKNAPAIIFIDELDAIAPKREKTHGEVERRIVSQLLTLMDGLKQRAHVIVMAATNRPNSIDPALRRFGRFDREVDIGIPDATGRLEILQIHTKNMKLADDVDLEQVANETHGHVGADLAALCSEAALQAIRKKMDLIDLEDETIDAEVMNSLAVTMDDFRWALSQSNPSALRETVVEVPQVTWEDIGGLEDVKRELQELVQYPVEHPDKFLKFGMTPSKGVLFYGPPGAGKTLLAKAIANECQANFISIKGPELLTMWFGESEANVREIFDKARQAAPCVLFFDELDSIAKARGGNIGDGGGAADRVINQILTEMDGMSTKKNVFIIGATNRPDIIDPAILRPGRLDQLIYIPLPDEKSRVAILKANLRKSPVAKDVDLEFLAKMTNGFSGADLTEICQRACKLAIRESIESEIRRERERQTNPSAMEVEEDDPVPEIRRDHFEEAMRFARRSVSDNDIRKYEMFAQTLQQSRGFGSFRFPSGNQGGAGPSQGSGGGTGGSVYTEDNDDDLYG

[22] = molecular target: Transitional endoplasmic reticulum ATPase (Homo sapiens, UniProt P55072); experiment: p97 ATPase inhibitors, dose response, biochemical (AID 1534)
[23] = molecular target: Eukaryotic translation initiation factor 4E (Mus musculus, UniProt P63073); experiment: blockers of eIF4G binding by eIF4E – biochemical, TR-FRET, dose response (AID 855); format: functional;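 also: potency for disrupting eIF4E binding to eIF4GI seen as loss of FRET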
Eukaryotic translation initiation factor 4E, sequence (P63073 whole entry): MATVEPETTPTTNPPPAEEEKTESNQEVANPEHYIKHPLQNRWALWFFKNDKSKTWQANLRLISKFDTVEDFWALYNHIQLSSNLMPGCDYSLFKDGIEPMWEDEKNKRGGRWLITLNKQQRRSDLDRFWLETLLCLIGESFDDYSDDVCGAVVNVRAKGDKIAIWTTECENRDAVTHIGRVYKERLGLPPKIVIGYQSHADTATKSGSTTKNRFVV

Structure (SMILES): CCCCn1c2c(c(=N)c3ccccc31)CCC2
- IC50 [1]: > 100 µM (inactive)
- EC50 [2]: > 112 µM (not active)
- EC50 [3]: 1.25 µM (active)
- IC50 [4]: 3.5 µM (active)
- IC50 [5]: > 80 µM (inactive)

Structure (SMILES): N=c1c(S(=O)(=O)c2ccc(Cl)cc2)cc2c(=O)n3ccccc3nc2n1Cc1ccco1
- IC50 (SUMO-activating enzyme [6]): 20.9 µM (active)
- IC50 (SUMO-activating enzyme [7]): 4.47 µM (active)
- EC50 [8]: > 260 µM (inactive)

Structure (SMILES): Cc1cc(C)c2nc(-c3ccccn3)cc(C(=O)Nc3cc(C)on3)c2c1
- Absolute IC50 (CHOP) [9]: 10 µM
- Absolute IC50 (XBP1) (X-box-binding protein 1): 10 µM

Structure (SMILES): CCCCCCCn1c(=O)c(C(=O)Nc2cnccn2)c(O)c2ccccc21
- EC50 (HEK293 [10]): 6.35 µM (active)
- EC50 [11]: 2.88 µM (active)
- IC50 (HEK293 [12]): > 20 µM (inactive)
- IC50 (HEK293 [13]): > 20 µM (inactive)
- EC50 [14]: 7.83 µM (active)
- IC50 (HEK293 [15]): 6.85 µM (active)
- IC50 (HEK293 [16]): > 20 µM (inactive)
- EC50 (Streptococcus): 6.65 µM (active)
- IC50 (Tumor necrosis factor): 3.18 µM (active)
- IC50 [17]: 5.6 µM (active)
- IC50 [18]: 8.05 µM (active)
- IC50 (HEK293 [19]): > 20 µM (inactive)

Structure (SMILES): O=c1cc2oc3cc(O)c(O)cc3c(-c3ccccc3)c-2cc1O
- IC50 [20]: < 1.25 µM (not active)

Structure (SMILES): CN(C)[C@@H]1C(O)=C(C(N)=O)C(=O)[C@@]2(O)C(O)=C3C(=O)c4c(O)cccc4[C@@](C)(O)[C@H]3[C@H](O)[C@@H]12 [OXYTETRACYCLINE]
- IC50 [21]: > 50 µM (not active)
- IC50 [22]: > 50 µM (not active)
- IC50 [23]: 50 µM (inactive)
